{"source": "patent US10272135B2", "about": "“Apolipoprotein O and fragments thereof for inducing apoptosis in a cancerous cell” (INSERM (INSTITUT NATIONAL DE LA SANTÉ ET DE LA RECHERCHE …, priority 2014, dated 2019)", "format_in_all_cases": "cell-based", "key": {"H9c2 cardiac myoblasts [1]": {"test_system": "H9c2 cardiac myoblasts", "experiment": "Measurement of O2 consumption (Oroboros Oxygraph-2k) in cardiac myoblasts", "conditions": "for oxygen consumption: cells treated with 1 μM antimycin or 1.5 μg/ml oligomycin (FIG. 4B)", "text": "After ethical committee approval, all patients in this study gave written consent for sample collection and molecular analysis prior to inclusion. Patients were carefully selected by physicians from the Department of Cardiology, Toulouse University Hospital, prior to coronary by-pass surgery. Bioinformatics. Microarray expression data from human heart samples were downloaded from the GEO repository (GSE1145). This series consisted of 107 myocardial samples collected from patients undergoing cardiac transplantation whose failure arises from different etiologies (e.g. idiopathic dilated cardiomyopathy, ischemic cardiomyopathy, valvular cardiomyopathy, and hypertrophic cardiomyopathy) and from “normal” organ donors whose hearts cannot be used for transplants. Arrays were intensity normalized and hierarchical clustering (average group linkage, Pearson correlation, threshold r=0.8) was applied to identify groups of co-expressed genes. ApoO expression levels were plotted for the 107 human hearts tested and used to define relevant molecular pathways using both Toppgene and Ingenuity Pathway Analysis (Ingenuity systems, Redwood City, Calif., USA). ApoO subcellular localization was predicted using Mitopred, mitoprot and YLoc. Animals: All animal Studies followed the INSERM Institute Animal Facility guidelines and were approved by the animal care committees of the INSERM I2MC UMR 1048. All animal procedures were performed according to the guidelines of the French Ministry of Agriculture. Animals were housed at the Toulouse I2MC animal facility in a room lit 12 h per day (6 AM-6 PM) at an ambient temperature of 22+/−1° C. Construction of ApoO Expression Vectors To overexpress human ApoO (pTT-ApoO), the ApoO coding sequence was amplified using primers hApoO5BamPTT (SEQ ID NO: 2) and hApoO3BamPTT (SEQ ID NO: 3) and cloned into the BamH1 site of pTT expression vector. pSNAP-ApoO was generated by PCR amplification of pTT-ApoO using primers SnapApoEcorV-F (SEQ ID NO: 4) and SnapApoEcorV-R (SEQ ID NO: 5) and cloned into the EcoRV site of pSNAP-Tag® (Ozyme, Saint-Quentin-en-Yvelines, France). pGEX2T-ApoO was constructed by PCR amplification of pTT-ApoO using hApoOpGEX1FBam (SEQ ID NO: 6) and hApoOpGEX1RSma (SEQ ID NO: 7) and cloned into the Bam HI/Sma I site of pGEX2T (Promega, Charbonnières-les-Bains). All primers used in this work were synthesized by Eurogentec France (Angers). All restriction enzymes used were from New England Biolabs (Ozyme, Saint-Quentin-en-Yvelines). All ApoO sequences within the expression vectors were verified by DNA double strand sequencing using ABI PRISM®BigDye™ Terminator version 3.1 Ready reaction cycle sequencing kit (Life Technologies SAS, Villebon sur Yvette) and loaded on an ABI 3130XL DNA sequencing instrument (Life Technologies SAS, Villebon sur Yvette). Cell Culture and Tranfection of H9C2 Cardic Myoblasts H9c2 were obtained from the European Collection of Cell Cultures (Salisbury, England). H9c2 cells were cultured in Dulbecco's modified Eagle medium (Life Technologies SAS, Villebon sur Yvette) adjusted to contain 1.5 g/liter sodium bicarbonate and supplemented with antibiotic-antimycotic solution (Life Technologies SAS, Villebon sur Yvette) and 10% fetal bovine serum (FBS, AbCys s.a., Paris). Cells were plated on 10-cm diameter tissue culture dish and grown in a 5% CO2 incubator at 37° C. with saturating humidity with medium changes every 2 days. […]"}, "Caspase-3": {"test_system": "Caspase-3", "experiment": "Caspase-3 enzymatic activity in H9c2 cardiac myoblasts", "conditions": "ApoO cells treated with both palmitate and oleate (FIG. 11c)", "text": "(§1) After ethical committee approval, all patients in this study gave written consent for sample collection and molecular analysis prior to inclusion. Patients were carefully selected by physicians from the Department of Cardiology, Toulouse University Hospital, prior to coronary by-pass surgery. Bioinformatics. Microarray expression data from human heart samples were downloaded from the GEO repository (GSE1145). This series consisted of 107 myocardial samples collected from patients undergoing cardiac transplantation whose failure arises from different etiologies (e.g. idiopathic dilated cardiomyopathy, ischemic cardiomyopathy, valvular cardiomyopathy, and hypertrophic cardiomyopathy) and from “normal” organ donors whose hearts cannot be used for transplants. Arrays were intensity normalized and hierarchical clustering (average group linkage, Pearson correlation, threshold r=0.8) was applied to identify groups of co-expressed genes. ApoO expression levels were plotted for the 107 human hearts tested and used to define relevant molecular pathways using both Toppgene and Ingenuity Pathway Analysis (Ingenuity systems, Redwood City, Calif., USA). ApoO subcellular localization was predicted using Mitopred, mitoprot and YLoc. Animals: All animal Studies followed the INSERM Institute Animal Facility guidelines and were approved by the animal care committees of the INSERM I2MC UMR 1048. All animal procedures were performed according to the guidelines of the French Ministry of Agriculture. Animals were housed at the Toulouse I2MC animal facility in a room lit 12 h per day (6 AM-6 PM) at an ambient temperature of 22+/−1° C. […] All ApoO sequences within the expression vectors were verified by DNA double strand sequencing using ABI PRISM®BigDye™ Terminator version 3.1 Ready reaction cycle sequencing kit (Life Technologies SAS, Villebon sur Yvette) and loaded on an ABI 3130XL DNA sequencing instrument (Life Technologies SAS, Villebon sur Yvette). […]"}, "H9c2 cardiac myoblasts [2]": {"test_system": "H9c2 cardiac myoblasts", "experiment": "Lipid profiling (FAME, diglycerides, triglycerides, BODIPY-palmitate) in cardiac myoblasts", "conditions": "ApoO cells treated with both palmitate and oleate (FIG. 11a-b)", "text": "as §1"}, "[3]": {"test_system": "long-chain acyl-CoA synthetase (ACSL)", "experiment": "Acyl-CoA synthetase activity in cardiac myoblasts", "conditions": "ApoO cells treated with 5 μM triacsin C", "text": "After ethical committee approval, all patients in this study gave written consent for sample collection and molecular analysis prior to inclusion. Patients were carefully selected by physicians from the Department of Cardiology, Toulouse University Hospital, prior to coronary by-pass surgery. Bioinformatics. Microarray expression data from human heart samples were downloaded from the GEO repository (GSE1145). This series consisted of 107 myocardial samples collected from patients undergoing cardiac transplantation whose failure arises from different etiologies (e.g. idiopathic dilated cardiomyopathy, ischemic cardiomyopathy, valvular cardiomyopathy, and hypertrophic cardiomyopathy) and from “normal” organ donors whose hearts cannot be used for transplants. Arrays were intensity normalized and hierarchical clustering (average group linkage, Pearson correlation, threshold r=0.8) was applied to identify groups of co-expressed genes. […] All ApoO sequences within the expression vectors were verified by DNA double strand sequencing using ABI PRISM®BigDye™ Terminator version 3.1 Ready reaction cycle sequencing kit (Life Technologies SAS, Villebon sur Yvette) and loaded on an ABI 3130XL DNA sequencing instrument (Life Technologies SAS, Villebon sur Yvette). […]"}}, "data": [{"compound": "N#CC(C#N)=NNc1cccc(Cl)c1", "note": "[CCCP, carbonyl cyanide m-chlorophenyl hydrazone]", "values": [{"measurement": "increase in oxygen consumption", "setting": "H9c2 cardiac myoblasts [1]; ApoO cells, addition of uncoupler 2 μM CCCP (FIG. 4B)", "result": 2, "unit": "fold"}]}, {"compound": "CCCCCCCC/C=C\\CCCCCCCC(=O)O", "note": "[oleate, reference compound]", "values": [{"measurement": "decrease in Caspase-3 activity", "setting": "Caspase-3", "result": 2, "unit": "fold"}, {"measurement": "decrease in diglyceride/triglyceride ratio", "setting": "H9c2 cardiac myoblasts [2]", "result": 12, "unit": "fold"}]}, {"compound": "CC[C@H]1/C=C/C=C/C[C@@H](C)[C@H](O)[C@@](C)(O)C(=O)[C@@H](C)[C@H](O)[C@@H](C)C(=O)[C@@H](C)[C@H](O)[C@@H](C)/C=C/C(=O)O[C@@H]2[C@H](C)[C@H](CC1)O[C@]1(CC[C@H](C)[C@H](C[C@@H](C)O)O1)[C@H]2C", "note": "[oligomycin]", "values": [{"measurement": "oxygen consumption", "setting": "H9c2 cardiac myoblasts [1]", "result": "partly inhibited"}]}, {"compound": "CCC/C=C/C/C=C/C=C/C=N/NN=O", "note": "[triacsin C, reference compound]", "values": [{"measurement": "ApoO-induced increase of ACSL activity", "setting": "[3]", "result": "significantly reversed"}]}, {"compound": "antimycin", "values": [{"measurement": "oxygen consumption", "setting": "H9c2 cardiac myoblasts [1]", "result": "almost completely inhibited"}]}]}
